Drawing on ChEMBL document CHEMBL1649140, “Accelerated metabolism of voriconazole and its partial reversal by cimetidine” (Antimicrob Agents Chemother, 2009), this text covers concentration and MIC for one molecule.

A short description of data set [1]: Cmin in patient with invasive pulmonary aspergillosis at 9.2 mg/kg, iv administered every 12 hrs measured after 8 days. It counts as ADME, organism-based. Set-up: dose 9.2 mg/kg, route intravenous. As to conditions: human, in vivo, read-out: Cmin.
A further data set has as its system Aspergillus ustus. The experiment in a line: Antifungal activity against Aspergillus ustus. The data set is classed as functional.

In brackets after ≈: the same amount, converted by molar mass.

As usually defined, the MIC is the lowest concentration found to suppress growth. High values mean a less susceptible organism, low ones a more susceptible organism.

Turning to `C[C@@H](c1ncncc1F)[C@](O)(Cn1cncn1)c1ccc(F)cc1F` [VORICONAZOLE], the concentration at 192 h in data set [1] turned out to be 1170 ng/mL. Also, the MIC in the data set with Aspergillus ustus worked out at 4 µg/mL (≈ 11.5 µM).
